Data set [1] can be described thus: Aqueous solubility of compound by HPLC analysis. The settings on record: buffer. The format is physicochemical.
Data set [2] can be described thus: MRT in Lewis rat at 5 mg/kg, po measured up to 24 hrs by LC-MS/MS method. The class given is ADME, organism-based. The settings on record: in vivo.
Data set [3] is described as follows: Clearance in Lewis rat at 1 mg/kg, iv measured up to 24 hrs by LC-MS/MS method. The format is ADME, organism-based. As to conditions: in vivo.
The nature of data set [4]: Cmax in Lewis rat at 5 mg/kg, po measured up to 24 hrs by LC-MS/MS method. The format is ADME, organism-based. Also on record: route oral, dose 5 mg/kg, time <=24. As to conditions: in vivo.
Data set [5] in a line: MRT in Lewis rat at 1 mg/kg, iv measured up to 24 hrs by LC-MS/MS method. The format is ADME, organism-based. The settings on record: in vivo.
Data set [6] is described as follows: Volume of distribution at steady state in Lewis rat at 5 mg/kg, po measured up to 24 hrs by LC-MS/MS method. The format is ADME, organism-based. The settings on record: in vivo.
The nature of data set [7]: Clearance in Lewis rat at 5 mg/kg, po measured up to 24 hrs by LC-MS/MS method. The class given is ADME, organism-based. As to conditions: in vivo.
Data set [8] in a line: Oral bioavailability in Lewis rat at 5 mg/kg measured up to 24 hrs by LC-MS/MS method. The format is ADME, organism-based. As to conditions: in vivo.
Data set [9] in a line: Metabolic stability in rat liver microsomes assessed as compound remaining at 1 uM measured up to 120 mins in presence of NADPH by HPLC-MS/MS analysis. The settings on record: read-out: Stabilty. The format is ADME, Microsome. On the technique in general: Liver microsomes are vesicles of endoplasmic reticulum, rich in cytochrome P450 enzymes.
The nature of data set [10]: Volume of distribution at steady state in Lewis rat at 1 mg/kg, iv measured up to 24 hrs by LC-MS/MS method. The format is ADME, organism-based. As to conditions: in vivo, read-out: Vdss.
A short description of data set [11]: Half life in Lewis rat at 5 mg/kg, po measured up to 24 hrs by LC-MS/MS method. The format is ADME, organism-based. The settings on record: in vivo.
A short description of data set [12]: AUC in Lewis rat at 5 mg/kg, po measured up to 24 hrs by LC-MS/MS method. The format is ADME, organism-based. Also on record: route oral, dose 5 mg/kg, time <=24. The settings on record: in vivo.
Data set [13] in a line: Distribution coefficient between octanol and aqueous buffer, logD of the compound in pH 7.2 buffer.
Data set [14] is described as follows: Half life in Lewis rat at 1 mg/kg, iv measured up to 24 hrs by LC-MS/MS method. The class given is ADME, organism-based. The settings on record: in vivo.
A short description of data set [15]: AUC in Lewis rat at 1 mg/kg, iv measured up to 24 hrs by LC-MS/MS method. The format is ADME, organism-based. Also on record: route intravenous, dose 1 mg/kg, time <=24. The settings on record: in vivo.
Data set [16] is described as follows: Tmax in Lewis rat at 5 mg/kg, po measured up to 24 hrs by LC-MS/MS method. The format is ADME, organism-based. The settings on record: in vivo.

Molecules are shown by their SMILES. In brackets after ≈: the same amount, converted by molar mass.

Data on 1 compound can be found in ChEMBL document CHEMBL4811248, “Discovery of imidazopyrrolopyridines derivatives as novel and selective inhibitors of JAK2” (Eur J Med Chem, 2021).

Usually solubility stands for the dissolved amount per volume that the medium holds. A higher solubility goes with a readily soluble substance. For orientation: MRT means the average time that molecules of a dose stay in the body. In general, Cmax refers to the highest concentration seen after dosing. The term bioavailability denotes dose-corrected exposure relative to a reference, in per cent. A lower bioavailability goes with little systemic uptake. A word on the half-life: it is how long it takes for the measured level to halve. Lower therefore signals rapid decline. As usually defined, the AUC is concentration integrated over time. Low readings indicate less exposure, high ones more exposure. A word on the logD: it is the decadic logarithm of the distribution of all forms, ionised or not, between an organic phase and buffer at a given pH. A higher logD goes with a more lipophilic compound. Usually Tmax stands for the time from dosing to the highest level.

In turn, `CCS(=O)(=O)N1CC(CC#N)(n2cc(-c3ncnc4[nH]ccc34)cn2)C1` [BARICITINIB] gave a solubility in data set [1] of 16.3 µg/mL (≈ 43.9 µM). Further, the MRT in [2] was determined as 4.36 h; in data set [5], 1.34 h. In addition, the values for the clearance in data set [3] and in [7] were 10.5 mL/min/kg and 23.2 mL/min/kg, respectively. For the same compound, in [4], the concentration peaked (Cmax) at 659 ng/mL. Also, in data set [6], the Vdss was 4.88 L/kg. The compound further returned a bioavailability in [8] of 45.5%. In addition, in data set [9], the remaining at 2 h, 1 µM stood at 96.1%. For the same compound, in [10], the Vd came out at 1.8 L/kg. In addition, the values for the half-life in [11] and in data set [14] were 2.43 h and 1.96 h, respectively. In addition, the AUC at 24 h was 3610 ng·h/mL in data set [12] and 1590 ng·h/mL in data set [15]. Moreover, the logD in data set [13] came to 0.24. Also, the time to peak (Tmax) in [16] stood at 1 h.
